Data as given in US20120165319A1, “INHIBITORS OF INTERLEUKIN-1 BETA CONVERTING ENZYME” (VERTEX PHARMACEUTICALS INCORPORATED, priority 1995, published 2012).
Where “and” joins values, the source holds several entries; their conditions need not be identical. Identical values can stand only once. Entries after “also recorded” stand apart in the source; their conditions may differ. Like-named read-outs stand apart in the source and are kept apart here.

How the values were obtained:
IL-1β, human whole blood = test: Whole blood assay for IL-1β production; assay type: cell-based
In short: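 IL-1β was quantified by ELISA in plasma diluted 1:200. The plasma came from EDTA-anticoagulated human whole blood incubated at 30 °C for 16-18 h with LPS (final 5.0 ng/ml) plus a saline serial dilution of compound. Controls were no-LPS, no-inhibitor and highest-vehicle.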

[1] = Pharmacokinetic studies in the mouse (i.v. clearance, plasma levels); assay type: in vivo; conditions: for clearance: CD-1, plasma; for clearance / concentration at 2 min: iv; for clearance / concentration at 2 min / Clearance Mouse, i.v.: mouse; for concentration at 2 min: plasma, read-out: mean plasma level at 2 minutes
Procedure: Pharmacokinetic Studies in the Mouse
Sample Preparation and Dosing
Compounds were dissolved in sterile TRIS solution (0.02M or 0.05M) at a concentration of 2.5 mg/ml. Where necessary to ensure a complete solution, the sample was first dissolved in a minimum of dimethylacetamide (maximum of 5% of total solution volume) then diluted with the TRIS solution.
The drug solution was administered to CD-1 mice (Charles River Laboratories—26-31 g) via the tail vein at a dose volume of 10 ml/kg giving a drug dose of 25 mg/kg.
Mice were dosed in groups of 5 for each timepoint (generally from 2 minutes to 2 hours) then at the appropriate time the animals were anaesthetised with halothane and the blood collected into individual heparinized tubes by jugular severance. The blood samples were cooled to 0° C. then the plasma separated and stored at −20° C. until assayed.
Drug concentration in the plasma samples were determined by HPLC analysis with UV or MS (ESP) detection. Reverse phase chromatography was employed using a variety of bonded phases from C1 to C18 with eluents composed of aqueous buffer/acetonitrile mixtures run under isocratic conditions.
Quantitation was by external standard methods with calibration curves constructed by spiking plasma with drug solutions to give concentrations in the range of 0.5 to 50 μg/ml.
Prior to analysis the plasma samples were deproteinated by the addition of acetonitrile, methanol, trichloroacetic acid or perchloric acid followed by centrifugation at 10,000 g for 10 minutes. Sample volumes of 20 μl to 50 μl were injected for analysis.
The drug was dissolved in sterile 0.02M Tris to give a 2.5 mg/ml solution which was administered to […] of 5 male CD-1 mice via the tail vein at a dose of 25 mg/kg. At each of the following timepoints: 2, 5, 10, 15, 20, 30, 45, 60, 90 and 120 minutes a group of animals was anaesthetised and the blood collected into heparinized tubes. After separation the plasma was stored at −20° C. until assayed.
Aliquots of plasma (150 μl) were treated with 5% perchloric acid (5 μl) then mixed by vortexing and allowed to stand for 90 minutes prior to centrifugation. The resulting supernatant was separated and 20 μl was injected for HPLC analysis.
Aliquots of plasma (100 μl) were diluted with acetonitrile (100 μl) then mixed by vortexing for 20 seconds before centrifugation for 10 minutes. The resulting supernatant was separated and 20 μl was injected for HPLC analysis.

[2] = system: IL-1β production, LPS-challenged mice; test: In vivo acute assay for efficacy as anti-inflammatory agent: LPS-induced IL-1β production in mice; set-up: species or system mouse; conditions: for IP % Inhibition / POS Inhibition: % inhibition of IL-β production, 50 mg/kg (Table 3); for percent inhibition of IL-1β production / inhibition at 50 mg/kg: compound PO; for inhibition of IL-1β secretion/production after IP administration: LPS-challenged CD1 mice, IP injection one hour after LPS; for inhibition at 50 mg/kg: po, read-out: percent inhibition of IL-1β production
In short: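 Serum IL-1β was measured by ELISA 7 h after an IP dose of 20 mg/kg LPS in CD1 mice, n=6 per group. Compounds in olive oil/DMSO/ethanol 90:5:5 were injected IP 1 h post-LPS (some analogs were dosed at challenge), and separate groups received 50 mg/kg by oral gavage.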

[3] = Homo sapiens, * = values obtained upon reassay, read-out: Whole human blood IC50
[4] = male CD-1 mice, i.v. tail vein, 25 mg/kg
[5] = LPS challenged mice, PO, 50 mg/kg, * = values obtained in subsequent assays (Table 4)

Molecule | IC50 (IL-1β, human whole blood; [3]) | clearance ([1]; 25 mg/kg) | also measured
O=C[C@H](CC(=O)O)NC(=O)[C@@H]1CCCN2C(=O)CC[C@H](NC(=O)CCc3ccccc3)C(=O)N12 [Compound 47a, [3S(1S,9S)]3-(6,10-Dioxo-octahydro-9-(3-phenylpropionylamino)-6H-pyridazino[1,2-a][1,2]diazepine-1-carboxamido)-4-oxobutanoic acid] | 5.1 µM | 79 mL/min/kg | –
O=C(O)C[C@H](NC(=O)[C@@H]1CCCN2C(=O)CC[C@H](NC(=O)CCc3ccccc3)C(=O)N12)C(=O)CSCc1ccccc1Cl [Compound 125b, [3S(1S,9S)]-3-(6,10-dioxo-1,2,3,4,7,8,9,10-octahydro)-9-(3-phenylpropionyl-amino)-6H-pyridazine[1,2-a][1,2]diazepine-1-carboxamido-5-(2-chlorophenyl-methylthio)-4-oxopentanoic acid] | 4.5 µM | – | melting point: 76 to 80 °C
COc1cccc2nc(C(=O)[C@H](CC(=O)O)NC(=O)[C@@H]3CCCN4C(=O)CC[C@H](NC(=O)CCc5ccccc5)C(=O)N34)oc12 [Compound 135a] | 5 µM | > 100 mL/min/kg | –
O=C(O)C[C@H](NC(=O)[C@@H]1CCCN2C(=O)CC[C@H](NC(=O)CCc3ccccc3)C(=O)N12)C(=O)COC(=O)c1c(Cl)cccc1Cl [Compound 136] | 2.8 µM | 93 mL/min/kg | –
CS(=O)(=O)N[C@H]1CCC(=O)N2CCC[C@@H](C(=O)N[C@@H](CC(=O)O)C(=O)COC(=O)c3c(Cl)cccc3Cl)N2C1=O [Compound 138] | 2.9 µM | 116 mL/min/kg | –
O=C[C@H](CC(=O)O)NC(=O)[C@@H]1CCCN2C(=O)CC[C@H](NC(=O)c3ccccc3)C(=O)N12 [Compound 214e, [3S(1S,9S)]3-(9-Benzoylamino-6,10-dioxo-1,2,3,4,7,8,9,10-octahydro-6H-pyridazino[1,2-a][1,2]-diazepine-1-carboxamido)-4-oxobutanoic acid] | 1.3 µM | 23 mL/min/kg | mean plasma level at 90 and 120 minutes [1, 4]: < 2 µg/mL; concentration at 2 min [1, 4]: 70 µg/mL; IP % Inhibition ([2]; LPS-challenged mice): 78%; POS Inhibition ([2]; LPS-challenged mice, PO): 75%; Inhibition of IL-1β Production, compound administered 0 hr relative to LPS challenge [2, 5]: 48* % and 80* %; Inhibition of IL-1β Production, compound administered −1 hr relative to LPS challenge [2, 5]: 44* %; Inhibition of IL-1β Production, compound administered −2 hr relative to LPS challenge [2, 5]: 43* % and 39* %; percent inhibition of IL-1β production ([2]; LPS challenged mice, 50 mg/kg, administered 0 h relative to time of LPS challenge): 70% and 48%; percent inhibition of IL-1β production ([2]; LPS challenged mice, 50 mg/kg, administered −2 h relative to time of LPS challenge): 43%; inhibition of IL-1β secretion/production after IP administration ([2]; result in words): dose dependent inhibition; also recorded: inhibit IL-1β production; inhibition of IL-1β secretion/production after oral (PO) administration ([2]; LPS-challenged mice, oral gavage, 50 mg/kg, result in words): inhibited IL-1β secretion; also recorded: inhibit IL-1β production; inhibition at 50 mg/kg ([2]; Mus musculus, 1 h, LPS challenged mice, 50 mg/kg, administered −1 h relative to time of LPS challenge): 44%; inhibition at 50 mg/kg ([2]; Mus musculus, 2 h, LPS challenged mice, 50 mg/kg, administered −2 h relative to time of LPS challenge): 39%; ED50 ([2]; Mus musculus, CD1 mice, LPS 20 mg/kg IP, compound IP one hour after LPS, blood seven hours after LPS, read-out: ED50, inhibition of IL-1β secretion): ~15 mg/kg
CC(=O)N[C@H]1CCC(=O)N2CCC[C@@H](C(=O)N[C@@H](CC(=O)O)C(=O)COC(=O)c3c(Cl)cccc3Cl)N2C1=O [Compound 217c, [3S(1S,9S)]3-(9-Acetylamino-6,10-dioxo-1,2,3,4,7,8,9,10-octahydro-6H-pyridazino-[1,2-a][1,2]diazepine-1-carboxamido)-5-(2,6-dichlorobenzoyloxy)-4-oxopentanoic acid] | 7 µM | 70 mL/min/kg | –
O=C(O)C[C@H](NC(=O)[C@@H]1CCCN2C(=O)CC[C@H](NC(=O)OCc3ccccc3)C(=O)N12)C(=O)COC(=O)c1c(Cl)cccc1Cl [Compound 217d, [3S(1S,9S)]3-(9-Benzyloxycarbonylamino-6,10-dioxo-1,2,3,4,7,8,9,10-octahydro-6H-pyridazino[1,2-a][1,2]-diazepine-1-carboxamido)-5-(2,6-dichlorobenzoyloxy)-4-oxopentanoic acid] | 4 µM | – | melting point: 85 to 110 °C
O=C(O)C[C@H](NC(=O)[C@@H]1CCCN2C(=O)CC[C@H](NC(=O)c3ccccc3)C(=O)N12)C(=O)COC(=O)c1c(Cl)cccc1Cl [Compound 217e, [3S(1S,9S)]3-(9-Benzoylamino-6,10-dioxo-1,2,3,4,7,8,9,10-octahydro-6H-pyridazino[1,2-a][1,2]-diazepine-1-carboxamido)-5-(2,6-dichlorobenzoyloxy)-4-oxopentanoic acid] | 2 µM | > 50 mL/min/kg | mean plasma concentration at 60-120 minutes [1, 4]: < 0.2 µg/mL; concentration at 2 min [1, 4]: ~55 µg/mL; inhibition of IL-1β secretion/production after IP administration ([2]; result in words): significant inhibition; also recorded: inhibits IL-1β production
O=C(O)CC(NC(=O)[C@@H]1CCCN2C(=O)CC[C@H](NC(=O)c3ccccc3)C(=O)N12)C(=O)CF (stereo partly drawn) [Compound 230e, [3RS,(1S,9S)]3-(9-Benzoylamino-6,10-dioxo-1,2,3,4,7,8,9,10-octahydro-6H-pyridazino[1,2-a][1,2]-diazepine-1-carboxamido)-5-fluoro-4-oxopentanoic acid] | – | – | IC50 (IL-1β, human whole blood; * = values obtained upon reassay, read-out: Whole human blood IC50): 0.3 µM; Clearance Mouse, i.v. ([1]; 25 mg/kg): 67 mL/min/kg
N#C[C@H](CC(=O)O)NC(=O)[C@@H]1CCCN2C(=O)CC[C@H](NC(=O)c3ccccc3)C(=O)N12 [Compound 232e, [3S(1S,9S)]9-(Benzoylamino)-3-[6,10-dioxo-1,2,3,4,7,8,9,10-octahydro-6H-pyridazino-[1,2-a][1,2]diazepine-1-carboxamido]-3-cyanopropanoic acid] | – | 22 mL/min/kg | –
O=C[C@H](CC(=O)O)NC(=O)[C@@H]1CCCN2C(=O)CCN(NC(=O)c3ccccc3)C(=O)N12 [Compound 265, [3S(4S)]3-(7-Benzamido-6,10-dioxo-1,2,3,4,7,8,9,10-octahydro-6H-pyridazino[1,2-a][1,2,4]triazepine-4-carboxamido)-4-oxobutanoic acid] | 1.4 µM | 23 mL/min/kg | IP % Inhibition ([2]; LPS-challenged mice): 30%; POS Inhibition ([2]; LPS-challenged mice, PO): 27%
COC(=O)N[C@H]1CCC(=O)N2CCC[C@@H](C(=O)N[C@@H](CC(=O)O)C(=O)COC(=O)c3c(Cl)cccc3Cl)N2C1=O [Compound 284, [3S(1S,9S)]5-(2,6-Dichlorobenzoyloxy)-3-[6,10-dioxo-9-(methoxycarbonyl)amino-1,2,3,4,7,8,9,10-octahydro-6H-pyridazino[1,2-a][1,2]diazepine-1-carboxamido]-4-oxopentanoic acid] | 0.55 µM | 77 mL/min/kg | –
O=C[C@H](CC(=O)O)NC(=O)[C@@H]1CCCN2C(=O)CC[C@H](NC(=O)c3ccsc3)C(=O)N12 [Compound 410] | 2.8 µM | 32 mL/min/kg | –
CC(=O)N1C[C@H](NC(=O)c2ccc3ccccc3c2)C(=O)N(CC(=O)N[C@H](C=O)CC(=O)O)c2ccccc21 [Compound 605n] | > 20 µM | 28 mL/min/kg | –
[3S(1S,9S)]3-[(6,10-Dioxo-9-(methanesulphonylamino)-1,2,3,4,7,8,9,10-octahydro-6H-pyridazino[1,2-a][1,2]diazepine-1-carboxamido]-5-(5-methyl-3-phenylisoxazoyloxy)-4-oxopentanoic acid [505 b] | – | – | IC50 (IL-1β, human whole blood; Table 18, read-out: Whole human blood IC5O): 2.1 µM; Clearance Mouse, i.v. ([1]; Table 18): 161 mL/min/kg
